Laboratory results published in publication PMC7349874, “High Content Screening Using New U2OS Reporter Cell Models Identifies Harmol Hydrochloride as a Selective and Competitive Antagonist of the Androgen Receptor” (Cells, 2020).
Where a name gives a salt, the structure may show the parent alone.

How the values were obtained:
[1] = target: T1, mineralocorticoid receptor (MR) (Homo sapiens, UniProt P08235); assay: Transactivation assay in HG5LN MR cells; format: cell-based; conditions: 16 h, 1 nM aldosterone, highest concentrations used (>1 µM)
T1 construct: expressed in transfected cells
T1 sequence (P08235 726-964 limits assumed): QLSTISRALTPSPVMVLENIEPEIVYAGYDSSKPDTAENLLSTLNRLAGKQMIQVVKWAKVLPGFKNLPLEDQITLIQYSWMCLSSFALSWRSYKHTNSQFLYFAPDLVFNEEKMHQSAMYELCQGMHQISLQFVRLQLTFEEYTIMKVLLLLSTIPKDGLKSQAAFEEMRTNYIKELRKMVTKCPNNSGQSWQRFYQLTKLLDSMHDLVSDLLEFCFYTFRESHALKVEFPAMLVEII
Description: (§1) HG5LN MR and HG5LN PXR luciferase reporter cell lines were obtained by stable expression of individual ligand binding domains fused to GAL4 DNA binding domain in HG5LN (HeLa GAL4REx5-luciferase) cells, as previously described. HELN PR cells were obtained by stably expressing PR with the ERα DNA binding domain in HELN (HeLa ERE-luciferase) cells and HMLN GR cells were obtained by stable co-transfection of HeLa cells with a plasmid encoding for a glucocorticoid responsive gene (MMTV-Luc-SV-Neo) and a glucocorticoid receptor expressing plasmid, as previously described.
(§2) Agonistic activities were evaluated in HMLN GR, HELN PR, HG5LN MR, and HG5LN PXR cells, using dexamethasone 100 nM, R5020 100 nM, aldosterone 100 nM, and SR12813 3 μM as a positive control, respectively. […] RU486 was used as a control antagonist for GR and PR, and spironolactone for MR.
(§3) HMLN glucocorticoid receptor (GR), HG5LN mineralocorticoid receptor (MR), HELN progesterone receptor (PR) and HG5LN PXR cells were used to evaluate the antagonistic effect of the tested compounds on (A) the glucocorticoid receptor (GR), (B) the mineralocorticoid receptor (MR), (C) the progesterone receptor (PR) and (D) the agonistic activity towards the pregnane X receptor (PXR). […]

LNCaP spheroids = conditions: 7 days, up to the highest concentrations used
Description: (§4) prostate cancer cells. GAPDH was used as a loading control.
(§5) Spheroids were treated for 7 days with the indicated concentrations of each drug, stained with PI (1 mg/mL) for 30 min and […] was evaluated using the Celigo® imaging system. Results are expressed as mortality ratios as compared to untreated spheroids (set at 1). Each point represent s the m ean ± SEM of 3 […]
(§6) Mortality (ratio/control)
(§7) [Harmol Hydrochloride] (M)

VCaP spheroids = conditions: 7 days, up to the highest concentrations used
Description: as §4, §5, §6, §7

[2] = design: method as in PMID 19363158; conditions: cited from earlier work
AR = conditions: cited from earlier work
LNCaP cells = assay: Spheroid growth (CellTiter-Glo), LNCaP; conditions: 7 days, 1 nM R1881
[3] = target: T2, glucocorticoid receptor (GR) (Homo sapiens, UniProt P04150); assay: Transactivation assay in HMLN GR cells; format: cell-based; conditions: 16 h, antagonism in the presence of 5 nM dexamethasone
T2 construct: expressed in transfected cells
T2 sequence (P04150 1-777): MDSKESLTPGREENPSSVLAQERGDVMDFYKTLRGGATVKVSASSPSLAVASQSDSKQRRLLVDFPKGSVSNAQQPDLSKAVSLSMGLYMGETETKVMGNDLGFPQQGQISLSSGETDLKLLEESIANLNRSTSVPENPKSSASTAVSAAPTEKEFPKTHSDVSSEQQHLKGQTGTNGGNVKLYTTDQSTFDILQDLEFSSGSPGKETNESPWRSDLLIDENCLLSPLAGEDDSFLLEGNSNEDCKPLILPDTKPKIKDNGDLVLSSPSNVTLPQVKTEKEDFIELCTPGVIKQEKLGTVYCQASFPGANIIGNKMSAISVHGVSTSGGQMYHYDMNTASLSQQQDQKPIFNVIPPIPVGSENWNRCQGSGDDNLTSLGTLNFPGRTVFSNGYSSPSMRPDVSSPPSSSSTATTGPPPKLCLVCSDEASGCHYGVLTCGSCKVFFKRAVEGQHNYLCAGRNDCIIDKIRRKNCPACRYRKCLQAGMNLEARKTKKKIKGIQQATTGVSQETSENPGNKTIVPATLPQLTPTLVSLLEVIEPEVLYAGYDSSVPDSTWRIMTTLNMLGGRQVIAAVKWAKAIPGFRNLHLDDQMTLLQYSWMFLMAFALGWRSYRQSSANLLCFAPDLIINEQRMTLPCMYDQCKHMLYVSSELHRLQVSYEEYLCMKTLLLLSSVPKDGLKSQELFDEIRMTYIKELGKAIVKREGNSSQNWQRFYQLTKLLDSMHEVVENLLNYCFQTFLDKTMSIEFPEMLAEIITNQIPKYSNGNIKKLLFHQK
Description: as §1, §2, §3

[4] = target: T3, progesterone receptor (PR) (Homo sapiens, UniProt P06401); assay: Transactivation assay in HELN PR cells; format: cell-based; conditions: 16 h, antagonism in the presence of 1 nM R5020
T3 sequence (P06401 679-933 limits assumed): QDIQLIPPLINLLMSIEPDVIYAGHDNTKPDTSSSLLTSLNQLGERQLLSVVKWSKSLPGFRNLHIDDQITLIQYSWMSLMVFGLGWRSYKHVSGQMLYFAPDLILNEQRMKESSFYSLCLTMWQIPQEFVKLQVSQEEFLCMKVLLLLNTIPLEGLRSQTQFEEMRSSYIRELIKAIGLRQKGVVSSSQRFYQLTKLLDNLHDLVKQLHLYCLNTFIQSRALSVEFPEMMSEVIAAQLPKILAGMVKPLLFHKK
Description: as §1, §2, §3

Structure (SMILES): Cc1nccc2c1[nH]c1cc(O)ccc12 [harmol hydrochloride, Harmol hydrochloride monohydrate]
- Antagonistic activity towards MR [1]: small antagonistic activity
- Cell death (propidium iodide positive cells) versus untreated spheroids (LNCaP spheroids): did not significantly affect the number of propidium iodide positive cells
- Cell death (propidium iodide positive cells) versus untreated spheroids (VCaP spheroids): did not significantly affect the number of propidium iodide positive cells
- Metabolism when administered in mice [2]: rapidly metabolized
- Concentration competing for ligand binding relative to the concentration necessary to fully inhibit AR activity (AR): 30- to 100 fold
- Inhibition of AR activation in a chemical genomic screen (AR): weak inhibitor
- Nature of AR inhibition reported earlier (AR): non-competitive inhibitor of AR
- Growth of LNCaP spheroids (LNCaP cells): A similar effect was observed
- Activity towards GR [3]: did not show any significant activity
- Activity towards PR [4]: did not show any significant activity
